What was measured:
MIA PaCa-2 cells = assay: Combined antimetabolite/sonodynamic therapy with free agents, MTT assay; conditions: 3 μM RB and/or 50 μM 5FU, 3 h; US 30 sec, 1 MHz; MTT 24 h; n=6
Protocol: The cells were incubated with either 3 μM RB and 50 μM 5FU (or both) for 3 h as these represent sub-lethal doses and enabled synergy to be identified if evident. Ultrasound exposure was 30 sec, 3 W/cm^2, 1 MHz, 50% duty cycle; pulse repetition frequency of […]. Cell viability was determined 24 h following treatment using a MTT assay.
Human primary pancreatic adenocarcinoma cell lines MIA PaCa-2 were maintained in Dulbecco's Modified Eagle's Medium and supplemented with 10% (v/v) foetal bovine serum in a humidified 5% CO2 atmosphere at 37° C. The cells were plated into the wells of a 96-well plate at a concentration of 4×10^3 cells per well and incubated for 21 h at 37° C. in a humidified 5% CO2 atmosphere. The medium was then removed and wells treated with either Rose Bengal, ([…]), 5-Fluorouracil (50 μM) or a combination of both RB (3 μM) and 5-FU (50 μM) for 3 h. The drug solutions were then removed, fresh media added and selected wells treated with ultrasound delivered using a Sonidel SP100 sonoporator (30 sec, frequency=1 MHz, ultrasound power density=3.0 Wcm^−2, duty cycle=50% with pulse repetition frequency=100 Hz). The cells were then incubated for 24 h before cell viability was determined using a MTT assay.

BxPc-3 tumours = assay: In vivo cytotoxicity: intratumoural treatment of ectopic xenograft tumours, tumour volume; design: species or system mice; conditions: 9 days after single intratumoural treatment; 440 μM gemcitabine or 5-FU alone; mix (90.8 μM RB, 440 μM 5FU) +US
Excerpt: FIG. 8 is a plot of (a) % change in tumour volume and (b) average body weight for mice treated with (i) no treatment (open diamonds) (ii) ultrasound only (filled diamonds) (iii) gemcitabine (open triangles) (iv) O2MB-RB/O2MB-5FU mix-US (open circles) (v) O2MB-RB+US (filled squares) (vi) O2MB-RB/O2MB-5FU mix+US (filled circles). Not shown for ease of illustration are treatments with 5-FU alone, O2MB-RB-US, O2MB-5FU+US, O2MB-5FU-US. The RB, 5-FU and gemcitabine concentrations were kept constant in each case at 0.184 mg/kg (90.8 μM), 0.115 mg/kg (440 μM) and 0.264 mg/kg (440 μM) respectively. Ultrasound treatment was delivered for 30 sec at frequency of 1 MHz, an ultrasound power density of 3.0 Wcm^−2 and a duty cycle of 50%, pulse frequency=100 Hz. […]
BxPc-3 cells were maintained in RPMI-1640 medium supplemented with 10% foetal calf serum as described above. […] Once the tumours had reached an average volume of 218 mm^3, calculated from the geometric mean diameter using the equation tumour volume=4πR^3/3, animals were randomly distributed into 10 groups (n=4). […] After treatment, animals were allowed to recover from anaesthesia and tumour volume and body weight were recorded daily for nine days. The % increase in tumour volume was calculated employing the pre-treatment measurements for each group.

BxPC-3 cells = assay: In vitro cytotoxicity with 780 nm irradiation; type: cell-based; conditions: exposed to 780 nm irradiation
[1] = Singlet oxygen production (SOSG intensity) on 780 nm excitation; type: physicochemical; conditions: excited at 780 nm
Excerpt: Increased SOSG intensity is indicative of singlet oxygen production.

Mia Paca cells = assay: In vitro cytotoxicity with 780 nm irradiation; type: cell-based; conditions: exposed to 780 nm irradiation
[2] = Fluorescence emission spectra compared with Cardio Green; type: physicochemical
Excerpt: The new compounds clearly show similar absorption profiles to Cardio Green. […] This is attributed to increased ISC due to the additional iodine atoms.

[3] = tested on: HeLa cervical cancer cell line; assay: In vitro cytotoxicity with 780 nm excitation; type: cell-based; conditions: excited at 780 nm
[4] = tested on: ectopic BxPC-3 pancreatic tumors; assay: Tumour localisation after tail vein administration; type: in vivo, mice; conditions: 18 hours following tail vein administration
Bcl2 = conditions: MIA PaCa-2 pancreatic cancer xenograft model; cited from earlier work
ectopic BxPC-3 tumours = assay: Systemic (IP) gemcitabine therapy of ectopic tumours, tumour volume; type: in vivo, mice; conditions: 120 mg/kg IP on days 0, 3 and 8
Protocol: FIG. 9 is a plot of % change in tumour volume for mice treated with IP gemcitabine (120 mg/kg on days 0, 3 and 8) (filled squares) or vehicle only (filled diamonds). Error bars represent+the standard error where n=4.
In order to compare the effectiveness of the combined SDT/5-FU therapy against systemic gemcitabine therapy, we treated mice bearing ectopic BxPC-3 tumours with gemcitabine (120 mg/kg) administered by intraperitoneal (IP) injection on days 0, 3 and 8. Tumour volume was measured daily as before and compared to untreated animal controls.

| Compound | reduction in cell viability with ultrasound relative to the same treatment without ultrasound (MIA PaCa-2 cells) | tumour growth over original starting volume (BxPc-3 tumours) | cytotoxicity compared with cardio green (BxPC-3 cells) | singlet oxygen production [1] | cytotoxicity compared with cardio green (Mia Paca cells) | fluorescence emission in comparison to cardio green [2] | toxicity compared with Cardio Green [3] | also measured |
| --- | --- | --- | --- | --- | --- | --- | --- | --- |
| O=c1[nH]cc(F)c(=O)[nH]1 [Compound 5-FU, 5-fluorouracil] | 5.9% | 123.3% | – | – | – | – | – | – |
| CC1(C)C(/C=C/C2=C(Cl)C(=C/C=C3/N(CCCCS(=O)(=O)O)c4ccc(I)cc4C3(C)C)/CCC2)=[N+](CCCCS(=O)(=O)O)c2ccc(I)cc21 [Compound I2-IRCYDYE, 2-((E)-2-((E)-2-chloro-3-((E)-2-(5-iodo-3,3-dimethyl-1-(4-sulfobutyl)indolin-2-ylidene)ethylidene)cyclohex-1-en-1-yl)vinyl)-5-iodo-3,3-dimethyl-1-(4-sulfobutyl)-3H-indol-1-ium] | – | – | significantly more cytotoxic | more singlet oxygen than Cardio Green | significantly more cytotoxic | remains similar to cardiogreen | more toxic | tumour localisation [4]: localises in tumor |
| CC1(C)C(/C=C/C2=C(Cl)C(=C/C=C3/N(CCCCS(=O)(=O)O)c4cc(I)cc(I)c4C3(C)C)/CCC2)=[N+](CCCCS(=O)(=O)O)c2cc(I)cc(I)c21 [Compound I4-IRCYDYE, 2-((E)-2-((E)-2-chloro-3-((E)-2-(4,6-diiodo-3,3-dimethyl-1-(4-sulfobutyl)indolin-2-ylidene)ethylidene)cyclohex-1-en-1-yl)vinyl)-4,6-diiodo-3,3-dimethyl-1-(4-sulfobutyl)-3H-indol-1-ium] | – | – | significantly more cytotoxic | more singlet oxygen than Cardio Green | significantly more cytotoxic | considerably quenched | more toxic | – |
| CN1CCN(CCCNc2cc3c4c(c(NCCCN5CCN(C)CC5)cc5c4c2C(=O)N(CCCN2CCOCC2)C5=O)C(=O)N(CCCN2CCOCC2)C3=O)CC1 [MM41] | – | – | – | – | – | – | – | reduction of Bcl2 levels at the protein level (Bcl2): 40% |
| O=C1OC2(c3cc(I)c(O)c(I)c3Oc3c2cc(I)c(O)c3I)c2c(Cl)c(Cl)c(Cl)c(Cl)c21 [RB, Rose Bengal] | 11.1% | – | – | – | – | – | – | – |
| Nc1ccn([C@@H]2O[C@H](CO)[C@@H](O)C2(F)F)c(=O)n1 [gemcitabine] | – | 125.1% | – | – | – | – | – | tumour volume relative to starting tumour volume (ectopic BxPC-3 tumours): at no point in the therapy did the tumour volume decrease below the starting tumour volume; tumour volume increase (ectopic BxPC-3 tumours; control group about 100%): 38%; increase in tumour volume at day 6 (ectopic BxPC-3 tumours; day 6): 20% |

— patent US12636379B2, “Microbubble-chemotherapeutic agent complex for sonodynamic therapy” (UNIVERSITY OF ULSTER, priority 2015, dated 2026)
